{
  "source": "patent US6399099B1",
  "about": "“Effervescent composition with dry extract of ginkgo biloba” (Dr. Willmar Schwabe GmbH & Co., priority 1995, dated 2002)",
  "origin": "cited, not measured here",
  "conditions": "neutral or slightly basic aqueous medium",
  "data": [
    {"compound": "CC(C)(C)[C@]1(O)CC2OC(=O)CC23C(=O)OC2OC(=O)[C@H](O)C231", "note": "(stereo partly shown) [bilobalide]", "values": [
      {"measurement": "stability in aqueous medium", "result": "not stable"}
    ]}
  ]
}
